This passage reports IC50 results from patent US20220388992A1, “JAK INHIBITOR COMPOUND AND USE THEREOF” (priority 2019, published 2022).

Common to all, as to assay type: biochemical
One test deals with T1, JAK3 (Homo sapiens, UniProt P52333).
T1 construct: purchased Carna 08-046
As to the kind of experiment: JAK3 kinase inhibition, ADP-Glo luminescence assay. The conditions noted are these: substrate Poly (4:1 Glu, Tyr). From the text: (§1) A drug screening system based on kinases JAK1, JAK2, JAK3, and TYK2 was used to detect the inhibitory ability of small molecule compounds on kinase activity. A kinase undergoes an enzymatic reaction with its substrates IRS 1, IGF1Rtide, and Poly (4:1 Glu, Tyr), consuming ATP to produce ADP, wherein the ADP-Glo reagent and luminescence method were used to detect the amount of the product to reflect the activity of the kinase. 2.1 Experimental Materials and Instruments
(§2) a) Dilute a compound solution to be tested by 5 times with 100% DMSO. […] The final concentration of DMSO is 0.5%. d) Transfer 4 μL of ADP-Glo to the 384-well reaction plate, centrifuge it at 1000 rpm/min for 1 min, and incubate it at 25° C. for 40 min. e) Transfer 8 μL of Detection solution to the 384-well reaction plate, centrifuge it at 1000 rpm/min for 1 min, and incubate it at 25° C. for 40 min. f) Use Biotek multi-function plate reader to read the RLU (Relative luminescence unit) signal. The signal intensity is used to characterize the degree of kinase activity.
(§3) IC50 (half inhibitory concentration) of the compound can be obtained using the following nonlinear fitting formula:
(§4) Y=Bottom+(Top−Bottom)/(1+10^((Log IC50−X)*HillSlope))
For orientation: In ADP-Glo the light output rises with the ADP produced.

Another test has as its target T2, TYK2 (Homo sapiens, UniProt P29597).
T2 sequence (P29597 871-1187 limits assumed): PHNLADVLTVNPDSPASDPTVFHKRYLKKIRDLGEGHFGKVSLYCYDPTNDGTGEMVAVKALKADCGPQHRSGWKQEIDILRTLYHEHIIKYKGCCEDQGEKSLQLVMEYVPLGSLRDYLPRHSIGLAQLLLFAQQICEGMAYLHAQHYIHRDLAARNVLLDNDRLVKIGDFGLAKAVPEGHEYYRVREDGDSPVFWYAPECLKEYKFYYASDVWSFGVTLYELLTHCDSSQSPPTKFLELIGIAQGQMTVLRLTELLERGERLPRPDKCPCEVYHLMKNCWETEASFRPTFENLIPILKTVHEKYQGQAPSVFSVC
As to the kind of experiment: TYK2 kinase inhibition, ADP-Glo luminescence assay. Conditions: substrate IRS1.
Description: as §1, §2, §3, §4

Another test has as its target JAK1 (Homo sapiens, UniProt P23458). As to the kind of experiment: JAK1 kinase inhibition, ADP-Glo luminescence assay. Set-up: purchased Carna 08-144. Conditions: substrate IRS1.
Description: as §1, §2, §3, §4

The target of a further test is JAK2 (Homo sapiens, UniProt O60674). Description: JAK2 kinase inhibition, ADP-Glo luminescence assay. Set-up: purchased Carna 08-045. Conditions: substrate IGF1Rtide.
Description: as §1, §2, §3, §4

One may read the IC50 as the concentration that gives 50% inhibition.

JAK1, sequence (P23458 850-1154 limits assumed): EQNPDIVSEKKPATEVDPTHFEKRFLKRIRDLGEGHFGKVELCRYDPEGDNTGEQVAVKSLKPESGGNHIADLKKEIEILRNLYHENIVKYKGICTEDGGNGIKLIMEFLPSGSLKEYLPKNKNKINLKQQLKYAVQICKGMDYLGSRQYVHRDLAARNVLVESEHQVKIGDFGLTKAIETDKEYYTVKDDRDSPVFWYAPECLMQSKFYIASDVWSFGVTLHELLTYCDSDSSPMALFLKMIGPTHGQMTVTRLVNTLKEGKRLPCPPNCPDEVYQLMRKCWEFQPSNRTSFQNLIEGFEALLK
T1 sequence (P52333 795-1124 limits assumed): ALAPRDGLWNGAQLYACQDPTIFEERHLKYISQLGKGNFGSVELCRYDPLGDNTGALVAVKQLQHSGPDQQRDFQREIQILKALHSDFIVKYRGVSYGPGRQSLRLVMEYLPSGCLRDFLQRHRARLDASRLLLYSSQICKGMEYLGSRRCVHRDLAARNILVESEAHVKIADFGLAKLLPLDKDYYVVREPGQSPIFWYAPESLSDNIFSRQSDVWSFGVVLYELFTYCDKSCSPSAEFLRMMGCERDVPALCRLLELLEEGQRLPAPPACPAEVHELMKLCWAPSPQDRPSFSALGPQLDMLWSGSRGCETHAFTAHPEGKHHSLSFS
JAK2, sequence (O60674 826-1132 limits assumed): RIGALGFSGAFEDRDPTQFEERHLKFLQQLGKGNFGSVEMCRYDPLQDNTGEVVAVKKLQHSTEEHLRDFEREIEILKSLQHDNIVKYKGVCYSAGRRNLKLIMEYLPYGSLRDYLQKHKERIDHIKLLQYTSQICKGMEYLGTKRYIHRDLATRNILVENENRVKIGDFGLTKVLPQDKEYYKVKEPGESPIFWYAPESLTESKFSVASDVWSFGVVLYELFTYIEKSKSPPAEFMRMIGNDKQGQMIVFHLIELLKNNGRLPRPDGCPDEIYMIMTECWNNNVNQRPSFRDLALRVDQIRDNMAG

On to `CCc1cc(O)c(F)cc1-c1ccc2c(-c3nc(CN4CCC(O)CC4)c[nH]3)n[nH]c2c1` [Ex-9, 1-((2-(6-(2-ethyl-5-fluoro-4-hydroxyphenyl)-1H-indazol-3-yl)-1H-imidazol-4-yl)methyl)piperidin-4-ol], for which the IC50 against JAK3 was found to be 1.3 nM; against TYK2, 19.8 nM; against JAK1, 1.3 nM; on JAK2 it was 1.5 nM.
Regarding `CCc1cc(O)c(F)cc1-c1ccc2c(-c3nc(CN(C)C(=O)C4CC4)c[nH]3)n[nH]c2c1` [Ex-10, N-((2-(6-(2-ethyl-5-fluoro-4-hydroxyphenyl)-1H-indazol-3-yl)-1H-imidazol-4-yl)methyl)-N-methylcyclopropanecarboxamide], the IC50 against JAK3 amounted to 4.5 nM; against TYK2, 27 nM; on JAK1, 1.2 nM; against JAK2 it was 5.2 nM.
For `CCc1cc(O)c(F)cc1-c1ccc2c(-c3nc(CN4CCC(C#N)CC4)c[nH]3)n[nH]c2c1` [Ex-11, 1-((2-(6-(2-ethyl-5-fluoro-4-hydroxyphenyl)-1H-indazol-3-yl)-1H-imidazol-4-yl)methyl)piperidine-4-nitrile], in that order: 2.5 nM, 18.4 nM, 0.31 nM and 0.85 nM.
In the same order, the values of `CCc1cc(O)c(F)cc1-c1ccc2c(-c3nc(CN4CCC(C#N)C4)c[nH]3)n[nH]c2c1` (centres unmarked) [Ex-12, 1-((2-(6-(2-ethyl-5-fluoro-4-hydroxyphenyl)-1H-indazol-3-yl)-1H-imidazol-4-yl)methyl)pyrrolidine-3-carbonitrile] are 0.67 nM, 6.1 nM, 0.1 nM and 0.74 nM.
`CCc1cc(O)c(F)cc1-c1ccc2c(-c3nc(CN4CCOCC4)c[nH]3)n[nH]c2c1` [Ex-13, 5-ethyl-2-fluoro-4-(3-(4-(morpholinomethyl)-1H-imidazol-2-yl)-1H-indazol-6-yl)phenol]: the IC50 at JAK3 came to 1.7 nM; at TYK2, 11.3 nM; at JAK1, 0.48 nM; against JAK2, 0.84 nM.
In the same order, the values of `CCc1cc(O)c(F)cc1-c1ccc2c(-c3nc(CNc4cccnc4)c[nH]3)n[nH]c2c1` [Ex-14, 5-ethyl-2-fluoro-4-(3-(4-((pyridin-3-ylamino)methyl)-1H-imidazol-2-yl)-1H-indazol-6-yl)phenol] are 1.6 nM, 9.6 nM, 0.47 nM and 1.2 nM.
In the same order, the values of `CCc1cc(O)c(F)cc1-c1ccc2c(-c3nc(CNc4cnn(C)c4)c[nH]3)n[nH]c2c1` [Ex-15, 5-ethyl-2-fluoro-4-(3-(4-(((1-methyl-1H-pyrazol-4-yl)amino)methyl)-1H-imidazol-2-yl)-1H-indazol-6-yl)phenol] are 0.76 nM, 4.9 nM, 0.29 nM and 0.78 nM.
Take `CCc1cc(O)c(F)cc1-c1ccc2c(-c3nc(CNC(=O)N(C)CCO)c[nH]3)n[nH]c2c1` [Ex-16, 3-((2-(6-(2-ethyl-5-fluoro-4-hydroxyphenyl)-1H-indazol-3-yl)-1H-imidazol-4-yl)methyl)-1-(2-hydroxyethyl)-1-methylurea]: the IC50 at JAK3 came out at 0.43 nM; at TYK2, 0.97 nM; on JAK1, 0.16 nM; against JAK2, 0.5 nM.
Take `CCc1cc(O)c(F)cc1-c1ccc2c(-c3nc(CNCC4CC4)c[nH]3)n[nH]c2c1` [Ex-17, 4-(3-(4-(((cyclopropylmethyl)amino)methyl)-1H-imidazol-2-yl)-1H-indazol-6-yl)-5-ethyl-2-fluoro phenol]: the IC50 against JAK3 is 2.9 nM; against TYK2, 6.5 nM; on JAK1, 0.36 nM; against JAK2 it was 1.2 nM.
For `CCc1cc(O)c(F)cc1-c1ccc2c(-c3nc(CNS(=O)(=O)C4CC4)c[nH]3)n[nH]c2c1` [Ex-18, N-((2-(6-(2-ethyl-5-fluoro-4-hydroxyphenyl)-1H-indazol-3-yl)-1H-imidazol-4-yl)methyl)cyclopropanesulfonamide], the 50% inhibitory concentration (IC50) was found to be 1.1 nM against JAK3, 3.7 nM at TYK2, 0.15 nM on JAK1 and 1.4 nM against JAK2.
`CCc1cc(O)c(F)cc1-c1ccc2c(-c3nc(CNS(=O)(=O)CC)c[nH]3)n[nH]c2c1` [Ex-19, N-((2-(6-(2-ethyl-5-fluoro-4-hydroxyphenyl)-1H-indazol-3-yl)-1H-imidazol-4-yl)methyl)ethanesulfonamide]: the IC50 turned out to be 2.3 nM against JAK3, 6.4 nM on TYK2, 0.33 nM at JAK1 and 3.3 nM on JAK2.
In the case of `CCc1cc(O)c(F)cc1-c1ccc2c(-c3nc(CNC(=O)N4CCC(O)CC4)c[nH]3)n[nH]c2c1` [Ex-20, N-((2-(6-(2-ethyl-5-fluoro-4-hydroxyphenyl)-1H-indazol-3-yl)-1H-imidazol-4-yl)methyl)-4-hydroxypiperidine-1-carboxamide], the IC50 against JAK3 was found to be 0.43 nM; against TYK2 it was 1 nM; at JAK1, 0.1 nM; at JAK2, 0.53 nM.
In the same order, the values of `CCc1cc(O)c(F)cc1-c1ccc2c(-c3nc(CN(C)C(=O)N4CC[C@@H](O)C4)c[nH]3)n[nH]c2c1` [Ex-21, (R)—N-((2-(6-(2-ethyl-5-fluoro-4-hydroxyphenyl)-1H-indazol-3-yl)-1H-imidazol-4-yl)methyl)-3-hydroxy-N-methylpyrrolidine-1-carboxamide] are 0.64 nM, 6.9 nM, 0.21 nM and 0.72 nM.
Turning to `CCc1cc(O)c(F)cc1-c1ccc2c(-c3nc(CNC(=O)N4CC[C@@H](O)C4)c[nH]3)n[nH]c2c1` [Ex-22, (R)—N-((2-(6-(2-ethyl-5-fluoro-4-hydroxyphenyl)-1H-indazol-3-yl)-1H-imidazol-4-yl)methyl)-3-hydroxypyrrolidine-1-carboxamide], the IC50 was 0.48 nM against JAK3, 1.1 nM on TYK2, 0.14 nM against JAK1 and 0.68 nM against JAK2.
In the same order, the values of `CCc1cc(O)c(F)cc1-c1ccc2c(-c3nc(CNC(=O)N4CC[C@H](O)C4)c[nH]3)n[nH]c2c1` [Ex-23, (S)—N-((2-(6-(2-ethyl-5-fluoro-4-hydroxyphenyl)-1H-indazol-3-yl)-1H-imidazol-4-yl)methyl)-3-hydroxypyrrolidine-1-carboxamide] are 0.49 nM, 0.96 nM, 0.15 nM and 0.68 nM.
In the case of `CCc1cc(O)c(F)cc1-c1ccc2c(-c3nc(CN(C)CCO)c[nH]3)n[nH]c2c1` [Ex-24, 5-ethyl-2-fluoro-4-(3-(4-(((2-hydroxyethyl)(methyl)amino)methyl)-1H-imidazol-2-yl)-1H-indazol-6-yl)phenol], the IC50 against JAK3 was 3.3 nM; on TYK2 it was 23 nM; on JAK1 it was 0.37 nM; against JAK2 it was 1.3 nM.
Take `CCc1cc(O)c(F)cc1-c1ccc2c(-c3nc(CNS(=O)(=O)C(C)C)c[nH]3)n[nH]c2c1` [Ex-25, N-((2-(6-(2-ethyl-5-fluoro-4-hydroxyphenyl)-1H-indazol-3-yl)-1H-imidazol-4-yl)methyl)propane-2-sulfonamide]: the IC50 came to 2.5 nM on JAK3, 7 nM against TYK2, 0.4 nM on JAK1 and 2.8 nM against JAK2.
With `CCc1cc(O)c(F)cc1-c1ccc2c(-c3nc(CNC(=O)OC)c[nH]3)n[nH]c2c1` [Ex-26, methyl ((2-(6-(2-ethyl-5-fluoro-4-hydroxyphenyl)-1H-indazol-3-yl)-1H-imidazol-4-yl)methyl)carbamate], the half-maximal inhibitory concentration (IC50) was found to be 0.57 nM against JAK3, 1.7 nM against TYK2, 0.43 nM on JAK1 and 0.43 nM at JAK2.
Turning to `CCc1cc(O)c(F)cc1-c1ccc2c(-c3nc(CNC(=O)OCCC#N)c[nH]3)n[nH]c2c1` [Ex-27, 2-cyanoethyl ((2-(6-(2-ethyl-5-fluoro-4-hydroxyphenyl)-1H-indazol-3-yl)-1H-imidazol-4-yl)methyl) carbamate], the IC50 against JAK3 came out at 4.4 nM; against TYK2, 9.2 nM; against JAK1, 0.92 nM; at JAK2, 6.3 nM.
With `CCc1cc(O)c(F)cc1-c1ccc2c(-c3nc(CNC(=O)C4CCC4)c[nH]3)n[nH]c2c1` [Ex-28, N-((2-(6-(2-ethyl-5-fluoro-4-hydroxyphenyl)-1H-indazol-3-yl)-1H-imidazol-4-yl)methyl)cyclobutanecarboxamide], the IC50 against JAK3 turned out to be 1 nM; against TYK2, 1.6 nM; on JAK1 it was 0.14 nM; on JAK2, 0.86 nM.
